Results: PubChem BioAssay AID248 (DTP/NCI, 2004)
Where “and” joins values, the source holds several entries; their conditions need not be identical. Equal entries are not always repeated. Inconclusive results and toxic doses are left out. No stated cut-off is given here; in the data, active means T/C of 150% or more; inactive means T/C below 125%.

System: L1210 leukemia ip in BDF1 mice, survival T/C
Assay: NCI In Vivo Anticancer Drug Screen. Data for tumor model L1210 Leukemia (intraperitoneal) in B6D2F1 (BDF1) mice
Conditions: endpoint: mean survival time, higher = longer survival
How it was run: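 Tumor cells were implanted, animals were treated, and survival was followed. The result divides the treated measurement by the vehicle-control measurement.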

[1] = dose: 100.0 mg/kg/injection, schedule: Q01DX001 (ip), vehicle: saline with Tween-80
[2] = dose: 100.0 mg/kg/injection, schedule: Q01DX009 (ip), vehicle: saline with Tween-80
[3] = dose: 200.0 mg/kg/injection, schedule: Q01DX001 (ip), vehicle: saline with Tween-80
[4] = dose: 200.0 mg/kg/injection, schedule: Q01DX009 (ip), vehicle: saline with Tween-80
[5] = dose: 400.0 mg/kg/injection, schedule: Q01DX001 (ip), vehicle: saline with Tween-80
[6] = dose: 100.0 mg/kg/injection, schedule: Q01DX001 (ip), vehicle: saline
[7] = dose: 200.0 mg/kg/injection, schedule: Q01DX001 (ip), vehicle: saline
[8] = dose: 400.0 mg/kg/injection, schedule: Q01DX001 (ip), vehicle: saline
[9] = dose: 100.0 mg/kg/injection, schedule: Q04DX003 (ip), vehicle: Klucel (hydroxypropylcellulose) (HPC)
[10] = dose: 200.0 mg/kg/injection, schedule: Q04DX003 (ip), vehicle: Klucel (hydroxypropylcellulose) (HPC)
[11] = dose: 400.0 mg/kg/injection, schedule: Q04DX003 (ip), vehicle: Klucel (hydroxypropylcellulose) (HPC)

Measured: T/C

Cc1ncc(C(O)(c2ccccc2)C(C)C)n1Cc1ccccc1 (stereo unspecified)
inactive: [1] 94 % of control | [2] 95 % of control and 96 % of control | dose: 100.0 mg/kg/injection, schedule: Q04DX002 (ip), vehicle: saline with Tween-80 95 % of control and 97 % of control | dose: 100.0 mg/kg/injection, schedule: Q04DX003 (ip), vehicle: saline with Tween-80 101 % of control | [3] 92 % of control | [4] 95 % of control and 108 % of control | dose: 200.0 mg/kg/injection, schedule: Q04DX002 (ip), vehicle: saline with Tween-80 93 % of control and 113 % of control | dose: 200.0 mg/kg/injection, schedule: Q04DX003 (ip), vehicle: saline with Tween-80 97 % of control | [5] 94 % of control | dose: 400.0 mg/kg/injection, schedule: Q01DX009 (ip), vehicle: saline with Tween-80 102 % of control | dose: 400.0 mg/kg/injection, schedule: Q04DX002 (ip), vehicle: saline with Tween-80 98 % of control and 103 % of control | dose: 400.0 mg/kg/injection, schedule: Q04DX003 (ip), vehicle: saline with Tween-80 101 % of control

CCCCCCCCCCCCNNC(=O)OCCO
inactive: [6] 101 % of control | [7] 93 % of control

O=C(Nc1ccc2c3c(ccc(NC(=O)c4ccccc4)c13)C=C2)c1ccccc1
inactive: dose: 50.0 mg/kg/injection, schedule: Q01DX001 (ip), vehicle: saline 102 % of control | [6] 100 % of control | [7] 100 % of control | [8] 100 % of control

O=C(N/N=C/c1ccc(N(CCCl)CCCl)cc1)c1ccc(C(=O)N/N=C/c2ccc(N(CCCl)CCCl)cc2)cc1
inactive: dose: 50.0 mg/kg/injection, schedule: Q01DX009 (ip), vehicle: Klucel (hydroxypropylcellulose) (HPC) 98 % of control | dose: 100.0 mg/kg/injection, schedule: Q01DX009 (ip), vehicle: Klucel (hydroxypropylcellulose) (HPC) 90 % of control | [9] 95 % of control | [10] 100 % of control

O=C1CCCC2C1CCC1C3CCC(O)CC3CCC21 (stereo unspecified)
inactive: dose: 100.0 mg/kg/injection, schedule: Q01DX001 (sc), vehicle: steriod suspending solution 91 % of control | dose: 200.0 mg/kg/injection, schedule: Q01DX001 (sc), vehicle: steriod suspending solution 93 % of control | dose: 400.0 mg/kg/injection, schedule: Q01DX001 (sc), vehicle: steriod suspending solution 95 % of control

CC1CCC(C2=CSC3CCCCC3N2)C(C)C1 (stereo unspecified)
inactive: dose: 100.0 mg/kg/injection, schedule: Q04DX002 (ip), vehicle: other 111 % of control | dose: 200.0 mg/kg/injection, schedule: Q04DX002 (ip), vehicle: other 101 % of control | dose: 400.0 mg/kg/injection, schedule: Q04DX002 (ip), vehicle: other 97 % of control

CC1OC2CCCCC2O1 (stereo unspecified)
inactive: dose: 50.0 mg/kg/injection, schedule: Q01DX009 (ip), vehicle: saline with Tween-80 97 % of control | [2] 97 % of control | [4] 94 % of control

CN(C)CC(=O)NCCCCCCCCCCNC(=O)CN(C)C
inactive: dose: 10.0 mg/kg/injection, schedule: Q01DX Z (ip), vehicle: saline 88 % of control | dose: 30.0 mg/kg/injection, schedule: Q01DX Z (ip), vehicle: saline 96 % of control | dose: 100.0 mg/kg/injection, schedule: Q01DX Z (ip), vehicle: saline 97 % of control | dose: 300.0 mg/kg/injection, schedule: Q01DX Z (ip), vehicle: saline 102 % of control

c1ccc2c(c1)CCc1c-2[nH]c2ccccc12
inactive: [2] 96 % of control | [4] 94 % of control

COC(=O)CNC(=O)C1NC(C)(C)SC1(C)C (stereo unspecified)
inactive: [6] 97 % of control | [7] 101 % of control | [8] 95 % of control

COc1cc(C=NC(CO)C(=O)O)ccc1O.COc1cc(C=NC(CO)C(=O)O)ccc1O.[Fe] (stereo unspecified)
inactive: dose: 100.0 mg/kg/injection, schedule: Q01DX009 (ip), vehicle: saline 92 % of control | dose: 100.0 mg/kg/injection, schedule: Q04DX003 (ip), vehicle: saline 88 % of control | dose: 200.0 mg/kg/injection, schedule: Q01DX009 (ip), vehicle: saline 92 % of control | dose: 200.0 mg/kg/injection, schedule: Q04DX003 (ip), vehicle: saline 95 % of control | dose: 400.0 mg/kg/injection, schedule: Q01DX009 (ip), vehicle: saline 95 % of control | dose: 400.0 mg/kg/injection, schedule: Q04DX003 (ip), vehicle: saline 93 % of control

COc1cc(C(=O)N/N=C/N(C)C)cc(OC)c1OC
inactive: dose: 75.0 mg/kg/injection, schedule: Q01DX009 (ip), vehicle: Klucel (hydroxypropylcellulose) (HPC) 109 % of control | [9] 99 % of control | dose: 150.0 mg/kg/injection, schedule: Q01DX009 (ip), vehicle: Klucel (hydroxypropylcellulose) (HPC) 102 % of control | [10] 99 % of control | dose: 300.0 mg/kg/injection, schedule: Q01DX009 (ip), vehicle: Klucel (hydroxypropylcellulose) (HPC) 89 % of control | [11] 100 % of control

O=C(Nc1ccccc1F)N1CCCCC1
inactive: dose: 100.0 mg/kg/injection, schedule: Q01DX009 (ip), vehicle: gum acacia 97 % of control | dose: 200.0 mg/kg/injection, schedule: Q01DX009 (ip), vehicle: gum acacia 97 % of control | dose: 400.0 mg/kg/injection, schedule: Q01DX009 (ip), vehicle: gum acacia 100 % of control

CCCCCCCCCCCCCCCCCC1=NC(C)(CO)CO1 (stereo unspecified)
inactive: [9] 102 % of control | [10] 96 % of control | [11] 107 % of control

Cc1cc(N(CCCl)CCCl)c(C)cc1NC(=O)c1ccccc1
inactive: dose: 0.75 mg/kg/injection, schedule: Q01DX009 (ip), vehicle: other 109 % of control | dose: 1.5 mg/kg/injection, schedule: Q01DX009 (ip), vehicle: other 105 % of control | dose: 3.0 mg/kg/injection, schedule: Q01DX009 (ip), vehicle: other 124 % of control | dose: 5.0 mg/kg/injection, schedule: Q01DX001 (ip), vehicle: other 118 % of control | dose: 6.0 mg/kg/injection, schedule: Q01DX009 (ip), vehicle: carboxymethylcellulose (CMC) 119 % of control | dose: 10.0 mg/kg/injection, schedule: Q01DX001 (ip), vehicle: other 114 % of control | dose: 10.0 mg/kg/injection, schedule: Q01DX001 (ip), vehicle: saline 117 % of control | dose: 10.0 mg/kg/injection, schedule: Q01DX009 (ip), vehicle: carboxymethylcellulose (CMC) 119 % of control | dose: 17.6 mg/kg/injection, schedule: Q01DX001 (ip), vehicle: carboxymethylcellulose (CMC) 111 % of control | dose: 17.6 mg/kg/injection, schedule: Q01DX001 (ip), vehicle: other 110 % of control and 115 % of control | dose: 18.0 mg/kg/injection, schedule: Q01DX009 (ip), vehicle: carboxymethylcellulose (CMC) 117 % of control | dose: 20.0 mg/kg/injection, schedule: Q01DX001 (ip), vehicle: other 122 % of control | dose: 20.0 mg/kg/injection, schedule: Q01DX001 (ip), vehicle: saline 96 % of control | dose: 26.0 mg/kg/injection, schedule: Q01DX001 (ip), vehicle: carboxymethylcellulose (CMC) 120 % of control | dose: 26.0 mg/kg/injection, schedule: Q01DX001 (ip), vehicle: other 115 % of control | dose: 30.0 mg/kg/injection, schedule: Q01DX009 (ip), vehicle: carboxymethylcellulose (CMC) 101 % of control | dose: 30.0 mg/kg/injection, schedule: Q01DX009 (ip), vehicle: other 96 % of control | dose: 40.0 mg/kg/injection, schedule: Q01DX001 (ip), vehicle: other 124 % of control | dose: 40.0 mg/kg/injection, schedule: Q01DX001 (ip), vehicle: saline 122 % of control | dose: 80.0 mg/kg/injection, schedule: Q01DX001 (ip), vehicle: carboxymethylcellulose (CMC) 120 % of control | dose: 80.0 mg/kg/injection, schedule: Q01DX001 (ip), vehicle: saline 114 % of control | dose: 120.0 mg/kg/injection, schedule: Q01DX001 (ip), vehicle: carboxymethylcellulose (CMC) 88 % of control

O=c1cc(/C=N/O)c2cccc3c2n1CCC3
inactive: [1] 100 % of control | [3] 91 % of control | [5] 94 % of control

CCCCOP(=O)(/C=C/c1ccc(NC(C)=O)cc1)OCCCC
inactive: dose: 100.0 mg/kg/injection, schedule: Q04DX002 (ip), vehicle: Klucel (hydroxypropylcellulose) (HPC) 104 % of control | dose: 200.0 mg/kg/injection, schedule: Q04DX002 (ip), vehicle: Klucel (hydroxypropylcellulose) (HPC) 96 % of control | dose: 400.0 mg/kg/injection, schedule: Q04DX002 (ip), vehicle: Klucel (hydroxypropylcellulose) (HPC) 89 % of control
